Source: ChEMBL document CHEMBL3639104, “Ring-fused compound” (2015)

Target: T1, Solute carrier family 22 member 12 (Homo sapiens, UniProt Q96S37)
T1 sequence (Q96S37 whole entry): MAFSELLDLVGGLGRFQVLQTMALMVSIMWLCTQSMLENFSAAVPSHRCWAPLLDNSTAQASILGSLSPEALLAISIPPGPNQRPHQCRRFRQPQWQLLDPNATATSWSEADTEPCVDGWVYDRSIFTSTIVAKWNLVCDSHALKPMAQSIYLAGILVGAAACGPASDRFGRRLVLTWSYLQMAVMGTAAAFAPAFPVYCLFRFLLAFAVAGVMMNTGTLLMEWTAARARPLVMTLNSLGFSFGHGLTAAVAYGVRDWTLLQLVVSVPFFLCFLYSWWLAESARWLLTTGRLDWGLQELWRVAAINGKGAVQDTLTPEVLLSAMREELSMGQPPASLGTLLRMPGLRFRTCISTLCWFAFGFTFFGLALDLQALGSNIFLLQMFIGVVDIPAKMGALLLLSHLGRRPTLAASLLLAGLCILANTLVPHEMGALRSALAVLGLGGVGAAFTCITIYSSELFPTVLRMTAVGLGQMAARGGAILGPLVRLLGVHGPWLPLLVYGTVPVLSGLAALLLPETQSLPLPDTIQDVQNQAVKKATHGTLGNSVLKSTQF
Test: Inhibition Assay: It was introduced human URAT1 full-length cDNA into an expression vector pcDNA5 / FRT / V5-His TOPO (registered trademark) (Invitrogen). The resulting expression plasmids, the liposome method using Lipofectamine LTX (Invitrogen), Chinese hamster ovary cells (hereinafter, referred to as CHO cells) was introduced into, by culturing in a selective medium containing hygromycin and human URAT1 stable The expression cell line we were prepared.Human URAT1 expression CHO cells, 10% fetal calf serum, D-MEM / F-12 containing the hygromycin (1: 1) using a mixed medium, 37 C, were cultured in the presence of 5% CO2. Cells were seeded in 96-well plates (Corning Incorporated) in 0.8x10E+5 cells / well, were subjected to the following uric acid transport inhibition test after 24 hours.After removal of the medium by aspiration, sodium gluconate of cells 125mM, potassium gluconate of 4.8mM, potassium dihydrogen phosphate of 1.2mM, magnesium sulfate of 1.2mM, calcium gluconate of 1.3mM, 5. washed once.
Format: cell-based

IC50 [µM]	SMILES
0.075	Cc1nn(Cc2c(Cl)cccc2Cl)c2cc(C(C)C(=O)O)ccc12 (configuration not stated)
0.098	Cc1nn(Cc2c(Cl)cccc2Cl)c2cc(C(C)(C)C(=O)O)ccc12
